Article PMC12858467, “In vitro toxicokinetics and metabolic profiling of methoxycathinones and methylthiocathinones using human liver systems and hyphenated mass spectrometry” (Archives of Toxicology, 2025)
Where two headings read alike, the source gives them in different places.

Tests used:
Format in all cases: in vitro ADME
[1] = In vitro plasma protein binding (ultrafiltration, Centrifree); conditions: human, pooled human blood plasma, 30 min, 37 °C, ultrafiltration
Experimental: PPB was investigated according to a previous study with minor modifications (Kroesen et al. [2025]). Fresh and pooled human blood plasma (450 µL) was spiked with 50 µL of a 5 µM methanolic solution of 4MeO-NE-BP, 4MeO-αP-BP, 4MeO-αP-VP, 4MeS-NE-BP, 4MeS-αP-BP, or 4MeS-αMor-PrP. The mixture was incubated for 30 min at 37 °C and with gentle shaking at 200 rpm. […] The Centrifree devices were centrifuged for 35 min at 1600 × g to obtain 100 µL of the ultrafiltrate (UF). […] Experiments were performed in quadruplicate. Fraction unbound (fu) and PPB were determined by comparing the area ratios of the compound and trimipramine-d3 as an internal standard in the UF and GA using the following equations:1 fu=peak area ratiocompoundUF/ISUF/peak area ratiocompoundGA/ISGA 2 PPB[\%]=1-fu∗100.

CYP2D6 = target: T1, CYP2D6 (Homo sapiens, UniProt P10635); assay: Monooxygenases activity screening, CYP2D6; set-up: key to one-step metabolite detected in CYP2D6 incubation: +, detected; -, not detected; conditions: 30 min, 37 °C
T1 construct: purchased Discovery Life Sciences (Huntsville, LA, USA); host or cells: baculovirus-infected insect cells (microsomes, Supersomes)
T1 sequence (P10635 whole entry): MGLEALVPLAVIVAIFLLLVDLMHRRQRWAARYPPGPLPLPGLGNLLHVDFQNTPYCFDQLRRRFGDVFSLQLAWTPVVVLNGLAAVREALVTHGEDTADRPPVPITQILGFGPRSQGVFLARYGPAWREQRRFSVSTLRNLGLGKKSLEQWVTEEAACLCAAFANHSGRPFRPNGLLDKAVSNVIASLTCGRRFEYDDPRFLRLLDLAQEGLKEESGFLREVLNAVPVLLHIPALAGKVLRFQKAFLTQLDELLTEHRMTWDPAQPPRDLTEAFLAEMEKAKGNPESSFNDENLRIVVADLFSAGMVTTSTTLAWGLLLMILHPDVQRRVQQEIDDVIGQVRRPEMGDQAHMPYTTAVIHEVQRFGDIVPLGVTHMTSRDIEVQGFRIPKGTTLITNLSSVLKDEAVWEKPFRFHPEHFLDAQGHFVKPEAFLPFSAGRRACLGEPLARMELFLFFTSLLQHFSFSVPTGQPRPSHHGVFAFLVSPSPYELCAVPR
Experimental: (§1) For incubations with CYP2A6 or CYP2C9, phosphate buffer was replaced with 90 mM Tris buffer, according to the manufacturer’s guideline. […] All incubations were done in duplicate and concentrations were fixed. Verapamil (25 µM) was incubated as a positive control.

[2] = test system: pooled human liver S9 fraction (pHLS9) and HepaRG cells; assay: In vitro metabolism by pHLS9 and HepaRG cells (LC-HRMS/MS metabolite identification); conditions: 25 µM substrate
CYP2E1 = target: T2, CYP2E1 (Homo sapiens, UniProt P05181); assay: Monooxygenases activity screening, CYP2E1; set-up: key: +, detected; -, not detected; conditions: 30 min, 37 °C
T2 construct: purchased Discovery Life Sciences (Huntsville, LA, USA); host or cells: baculovirus-infected insect cells (microsomes, Supersomes)
T2 sequence (P05181 whole entry): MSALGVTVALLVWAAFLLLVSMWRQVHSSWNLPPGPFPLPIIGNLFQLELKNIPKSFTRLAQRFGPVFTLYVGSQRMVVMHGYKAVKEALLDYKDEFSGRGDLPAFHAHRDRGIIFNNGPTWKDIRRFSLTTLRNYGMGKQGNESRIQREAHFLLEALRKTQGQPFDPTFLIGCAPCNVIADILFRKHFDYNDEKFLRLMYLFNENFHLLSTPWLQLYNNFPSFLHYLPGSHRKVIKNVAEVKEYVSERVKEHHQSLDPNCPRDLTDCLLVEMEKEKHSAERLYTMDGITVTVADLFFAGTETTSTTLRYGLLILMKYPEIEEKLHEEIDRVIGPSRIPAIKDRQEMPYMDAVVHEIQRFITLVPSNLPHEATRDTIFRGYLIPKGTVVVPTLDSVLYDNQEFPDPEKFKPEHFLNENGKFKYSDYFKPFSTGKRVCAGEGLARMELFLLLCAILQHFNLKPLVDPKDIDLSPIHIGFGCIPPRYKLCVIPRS
Experimental: as §1

[3] = target: T3, flavin-containing monooxygenase 3 (FMO3) (Homo sapiens, UniProt P31513); assay: Monooxygenases activity screening, FMO3; set-up: key: +, detected; -, not detected; conditions: 30 min, 37 °C
T3 construct: purchased Discovery Life Sciences (Huntsville, LA, USA); host or cells: baculovirus-infected insect cells (microsomes, Supersomes)
T3 sequence (P31513 1-532): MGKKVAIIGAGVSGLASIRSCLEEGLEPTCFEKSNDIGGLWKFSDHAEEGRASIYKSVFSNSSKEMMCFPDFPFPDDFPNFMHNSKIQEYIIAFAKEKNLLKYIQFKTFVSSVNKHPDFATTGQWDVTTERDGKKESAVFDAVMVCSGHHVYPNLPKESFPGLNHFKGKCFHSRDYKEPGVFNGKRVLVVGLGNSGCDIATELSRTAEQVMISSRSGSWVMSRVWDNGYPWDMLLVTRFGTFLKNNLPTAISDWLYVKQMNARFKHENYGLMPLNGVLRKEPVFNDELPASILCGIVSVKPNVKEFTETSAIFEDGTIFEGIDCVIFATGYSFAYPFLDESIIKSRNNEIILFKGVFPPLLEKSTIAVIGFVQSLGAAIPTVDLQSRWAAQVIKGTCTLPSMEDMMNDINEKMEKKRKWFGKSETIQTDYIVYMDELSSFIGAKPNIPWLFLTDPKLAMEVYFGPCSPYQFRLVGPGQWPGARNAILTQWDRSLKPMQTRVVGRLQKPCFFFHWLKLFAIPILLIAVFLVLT
Experimental: as §1

CYP2C19 = target: T4, CYP2C19 (Homo sapiens, UniProt P33261); assay: Monooxygenases activity screening, CYP2C19; set-up: key: +, detected; -, not detected; conditions: 30 min, 37 °C
T4 construct: purchased Discovery Life Sciences (Huntsville, LA, USA); host or cells: baculovirus-infected insect cells (microsomes, Supersomes)
T4 sequence (P33261 whole entry): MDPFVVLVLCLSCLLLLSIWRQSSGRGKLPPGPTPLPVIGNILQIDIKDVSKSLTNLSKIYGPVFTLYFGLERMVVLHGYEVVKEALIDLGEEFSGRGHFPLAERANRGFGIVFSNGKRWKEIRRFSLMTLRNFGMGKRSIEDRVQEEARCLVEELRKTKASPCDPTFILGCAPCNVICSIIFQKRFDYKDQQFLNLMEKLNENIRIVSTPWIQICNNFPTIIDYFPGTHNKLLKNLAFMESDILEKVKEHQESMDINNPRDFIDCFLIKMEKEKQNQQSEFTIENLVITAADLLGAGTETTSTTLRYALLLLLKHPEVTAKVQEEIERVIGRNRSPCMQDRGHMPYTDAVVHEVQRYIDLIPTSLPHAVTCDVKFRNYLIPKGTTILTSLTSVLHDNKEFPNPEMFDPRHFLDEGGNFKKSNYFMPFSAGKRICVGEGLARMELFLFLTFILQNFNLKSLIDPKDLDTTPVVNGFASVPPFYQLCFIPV
Experimental: as §1

CYP2C8 = target: T5, CYP2C8 (Homo sapiens, UniProt P10632); assay: Monooxygenases activity screening, CYP2C8; set-up: key: +, detected; -, not detected; conditions: 30 min, 37 °C
T5 construct: purchased Discovery Life Sciences (Huntsville, LA, USA); host or cells: baculovirus-infected insect cells (microsomes, Supersomes)
T5 sequence (P10632 1-490): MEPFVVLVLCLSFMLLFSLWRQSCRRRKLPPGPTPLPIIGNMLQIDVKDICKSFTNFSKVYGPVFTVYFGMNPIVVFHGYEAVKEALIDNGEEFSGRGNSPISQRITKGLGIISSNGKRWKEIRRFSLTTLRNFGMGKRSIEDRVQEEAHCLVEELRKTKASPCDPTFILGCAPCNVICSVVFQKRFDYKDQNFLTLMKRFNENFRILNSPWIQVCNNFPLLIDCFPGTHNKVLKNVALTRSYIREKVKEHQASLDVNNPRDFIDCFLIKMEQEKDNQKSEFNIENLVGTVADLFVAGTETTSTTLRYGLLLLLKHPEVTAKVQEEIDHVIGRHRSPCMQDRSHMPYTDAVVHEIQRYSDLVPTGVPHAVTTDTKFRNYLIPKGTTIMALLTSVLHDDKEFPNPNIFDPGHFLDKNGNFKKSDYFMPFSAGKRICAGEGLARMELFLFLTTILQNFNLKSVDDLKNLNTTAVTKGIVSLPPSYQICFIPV
Experimental: as §1

CYP2C9 = target: T6, CYP2C9 (Homo sapiens, UniProt P11712); assay: Monooxygenases activity screening, CYP2C9; set-up: key: +, detected; -, not detected; conditions: 30 min, 37 °C
T6 construct: purchased Discovery Life Sciences (Huntsville, LA, USA); host or cells: baculovirus-infected insect cells (microsomes, Supersomes)
T6 sequence (P11712 whole entry): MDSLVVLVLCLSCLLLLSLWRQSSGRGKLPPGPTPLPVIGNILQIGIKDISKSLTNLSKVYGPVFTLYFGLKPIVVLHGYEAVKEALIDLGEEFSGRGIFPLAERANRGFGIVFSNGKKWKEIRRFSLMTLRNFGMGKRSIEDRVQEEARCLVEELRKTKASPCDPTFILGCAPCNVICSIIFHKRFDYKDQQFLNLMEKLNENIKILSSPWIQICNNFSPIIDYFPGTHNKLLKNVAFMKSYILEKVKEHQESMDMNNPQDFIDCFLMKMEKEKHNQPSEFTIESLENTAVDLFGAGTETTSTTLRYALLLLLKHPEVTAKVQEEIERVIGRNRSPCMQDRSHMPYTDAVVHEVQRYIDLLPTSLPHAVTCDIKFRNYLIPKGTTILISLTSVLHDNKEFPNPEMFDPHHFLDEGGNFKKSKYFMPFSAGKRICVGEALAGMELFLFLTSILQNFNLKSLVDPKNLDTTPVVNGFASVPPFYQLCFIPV
Experimental: as §1

CYP3A5 = target: T7, CYP3A5 (Homo sapiens, UniProt P20815); assay: Monooxygenases activity screening, CYP3A5; set-up: key: +, detected; -, not detected; conditions: 30 min, 37 °C
T7 construct: purchased Discovery Life Sciences (Huntsville, LA, USA); host or cells: baculovirus-infected insect cells (microsomes, Supersomes)
T7 sequence (P20815 whole entry): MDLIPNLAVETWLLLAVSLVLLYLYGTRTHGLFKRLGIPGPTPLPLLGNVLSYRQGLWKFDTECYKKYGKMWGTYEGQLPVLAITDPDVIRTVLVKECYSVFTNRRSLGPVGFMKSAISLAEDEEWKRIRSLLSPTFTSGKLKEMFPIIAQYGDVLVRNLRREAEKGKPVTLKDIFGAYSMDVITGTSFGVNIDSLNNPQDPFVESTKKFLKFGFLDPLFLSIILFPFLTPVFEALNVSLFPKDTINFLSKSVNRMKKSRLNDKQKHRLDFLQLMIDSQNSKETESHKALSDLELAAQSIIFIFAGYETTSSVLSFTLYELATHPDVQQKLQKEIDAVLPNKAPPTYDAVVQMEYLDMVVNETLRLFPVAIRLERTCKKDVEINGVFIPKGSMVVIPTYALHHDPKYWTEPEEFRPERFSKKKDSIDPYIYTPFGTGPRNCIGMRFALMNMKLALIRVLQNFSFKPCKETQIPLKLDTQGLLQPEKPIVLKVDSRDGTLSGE
Experimental: as §1

CYP3A4 = target: T8, CYP3A4 (Homo sapiens, UniProt P08684); assay: Monooxygenases activity screening, CYP3A4; set-up: key: +, detected; -, not detected; conditions: 30 min, 37 °C
T8 construct: purchased Discovery Life Sciences (Huntsville, LA, USA); host or cells: baculovirus-infected insect cells (microsomes, Supersomes)
T8 sequence (P08684 whole entry): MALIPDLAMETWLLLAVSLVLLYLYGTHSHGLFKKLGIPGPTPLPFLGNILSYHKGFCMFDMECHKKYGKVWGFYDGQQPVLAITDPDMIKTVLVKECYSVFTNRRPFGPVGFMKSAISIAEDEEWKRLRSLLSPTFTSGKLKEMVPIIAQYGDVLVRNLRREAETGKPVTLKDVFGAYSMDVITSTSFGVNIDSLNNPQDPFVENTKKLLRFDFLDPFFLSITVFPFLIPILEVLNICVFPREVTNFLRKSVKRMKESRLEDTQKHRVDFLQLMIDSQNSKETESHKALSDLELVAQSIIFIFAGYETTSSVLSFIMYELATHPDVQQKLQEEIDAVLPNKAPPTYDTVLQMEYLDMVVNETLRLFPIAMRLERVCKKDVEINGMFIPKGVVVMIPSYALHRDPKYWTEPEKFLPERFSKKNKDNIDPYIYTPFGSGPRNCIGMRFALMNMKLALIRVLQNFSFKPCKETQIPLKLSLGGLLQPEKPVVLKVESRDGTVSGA
Experimental: as §1

CYP1A2 = target: T9, CYP1A2 (Homo sapiens, UniProt P05177); assay: Monooxygenases activity screening, CYP1A2; set-up: key: +, detected; -, not detected; conditions: 30 min, 37 °C
T9 construct: purchased Discovery Life Sciences (Huntsville, LA, USA); host or cells: baculovirus-infected insect cells (microsomes, Supersomes)
T9 sequence (P05177 1-516): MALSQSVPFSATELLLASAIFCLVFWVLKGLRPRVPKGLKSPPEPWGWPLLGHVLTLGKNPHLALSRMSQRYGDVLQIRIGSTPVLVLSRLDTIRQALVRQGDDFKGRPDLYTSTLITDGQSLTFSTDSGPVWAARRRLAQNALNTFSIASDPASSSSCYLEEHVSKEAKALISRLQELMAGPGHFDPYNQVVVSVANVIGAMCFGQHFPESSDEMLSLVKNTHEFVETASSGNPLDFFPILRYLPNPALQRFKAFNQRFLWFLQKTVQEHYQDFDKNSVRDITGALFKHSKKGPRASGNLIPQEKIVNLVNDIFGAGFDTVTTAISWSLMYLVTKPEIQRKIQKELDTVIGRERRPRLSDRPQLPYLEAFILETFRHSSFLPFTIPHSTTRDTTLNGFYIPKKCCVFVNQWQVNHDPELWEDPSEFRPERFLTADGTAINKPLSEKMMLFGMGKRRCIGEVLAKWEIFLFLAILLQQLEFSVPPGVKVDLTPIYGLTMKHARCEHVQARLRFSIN
Experimental: as §1

CYP2A6 = target: T10, CYP2A6 (Homo sapiens, UniProt P11509); assay: Monooxygenases activity screening, CYP2A6; set-up: key: +, detected; -, not detected; conditions: 30 min, 37 °C
T10 construct: purchased Discovery Life Sciences (Huntsville, LA, USA); host or cells: baculovirus-infected insect cells (microsomes, Supersomes)
T10 sequence (P11509 1-494): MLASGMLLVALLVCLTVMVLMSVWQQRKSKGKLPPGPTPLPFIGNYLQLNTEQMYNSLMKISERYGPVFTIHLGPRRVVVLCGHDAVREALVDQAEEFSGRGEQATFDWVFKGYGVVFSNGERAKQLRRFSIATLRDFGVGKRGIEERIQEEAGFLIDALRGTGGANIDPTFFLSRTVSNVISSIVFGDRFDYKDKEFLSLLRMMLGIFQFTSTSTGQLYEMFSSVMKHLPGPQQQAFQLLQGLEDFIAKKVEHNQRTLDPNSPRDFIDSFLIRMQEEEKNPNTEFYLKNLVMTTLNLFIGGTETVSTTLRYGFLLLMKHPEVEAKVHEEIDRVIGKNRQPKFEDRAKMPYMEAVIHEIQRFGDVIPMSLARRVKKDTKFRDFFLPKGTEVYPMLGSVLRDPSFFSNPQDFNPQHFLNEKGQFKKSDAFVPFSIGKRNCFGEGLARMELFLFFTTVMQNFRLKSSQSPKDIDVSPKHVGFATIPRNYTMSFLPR
Experimental: as §1

CYP2B6 = target: T11, CYP2B6 (Homo sapiens, UniProt P20813); assay: Monooxygenases activity screening, CYP2B6; set-up: key: +, detected; -, not detected; conditions: 30 min, 37 °C
T11 construct: purchased Discovery Life Sciences (Huntsville, LA, USA); host or cells: baculovirus-infected insect cells (microsomes, Supersomes)
T11 sequence (P20813 1-491): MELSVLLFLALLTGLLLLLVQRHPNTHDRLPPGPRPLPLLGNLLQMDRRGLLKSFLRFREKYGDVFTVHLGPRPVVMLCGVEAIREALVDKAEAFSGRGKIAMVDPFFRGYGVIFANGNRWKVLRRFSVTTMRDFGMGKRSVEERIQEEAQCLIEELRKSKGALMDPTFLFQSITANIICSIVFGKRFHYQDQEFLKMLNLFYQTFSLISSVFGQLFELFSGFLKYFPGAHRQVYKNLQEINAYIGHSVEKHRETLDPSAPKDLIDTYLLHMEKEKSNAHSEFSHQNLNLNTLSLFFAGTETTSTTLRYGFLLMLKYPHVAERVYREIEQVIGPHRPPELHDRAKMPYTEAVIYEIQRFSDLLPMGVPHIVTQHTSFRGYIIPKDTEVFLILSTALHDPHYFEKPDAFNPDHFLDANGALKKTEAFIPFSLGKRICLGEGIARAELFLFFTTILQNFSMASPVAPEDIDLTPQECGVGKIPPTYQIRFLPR
Experimental: as §1

[4] = substrate 4MeS-αP-BP 25 µM, Table S3.5
[5] = substrate 4MeS-αMor-PrP 25 µM, Table S3.6

SMILES	one-step metabolite detected in CYP2E1 incubation (CYP2E1; [5])	one-step metabolite detected in CYP2D6 incubation (CYP2D6; [5])	one-step metabolite detected in FMO3 incubation [3, 5]	one-step metabolite detected in CYP2C19 incubation (CYP2C19; [5])	one-step metabolite detected in CYP2C8 incubation (CYP2C8; [5])	one-step metabolite detected in CYP2C9 incubation (CYP2C9; [5])	one-step metabolite detected in CYP3A5 incubation (CYP3A5; [5])	one-step metabolite detected in CYP3A4 incubation (CYP3A4; [5])	one-step metabolite detected in CYP1A2 incubation (CYP1A2; [5])	one-step metabolite detected in CYP2A6 incubation (CYP2A6; [5])	one-step metabolite detected in CYP2B6 incubation (CYP2B6; [5])	other results
CCC(C(=O)c1ccc(SC)cc1)N1CCCC1 (stereo not drawn) [Compound 4MeS-αP-BP, 4’-methylthio-α-pyrrolidinobutyrophenone]												fraction unbound at 30 min, 0.5 µM ([1]; read-out: PPB, % (converted)): 0.16; fraction unbound at 30 min, 0.5 µM ([1]; read-out: fu (unbound fraction)): 0.16; S-demethylation, only mediated by one CYP isoform (CYP2D6; 25 µM): CYP2D6; metabolic reactions (metabolite IDs) identified [2]: S-demethylation (MT2.1), hydroxylation (MT2.2), N-oxidation (MT2.3), lactam formation (MT2.4), N,N-bis-dealkylation (MT2.5), dihydroxylation (MT2.6), S-demethylation + hydroxylation (MT2.7), and N-oxidation + hydroxylation (MT2.8); number of metabolites tentatively identified [2]: 8
CCC(C(=O)c1ccc(S)cc1)N1CCCC1 (centres unmarked) [MT2.1]												one-step metabolite detected in CYP2E1 incubation (CYP2E1; [4]): -; one-step metabolite detected in CYP2D6 incubation (CYP2D6; [4]): +; one-step metabolite detected in FMO3 incubation [3, 4]: -; one-step metabolite detected in CYP2C19 incubation (CYP2C19; [4]): -; one-step metabolite detected in CYP2C8 incubation (CYP2C8; [4]): -; one-step metabolite detected in CYP2C9 incubation (CYP2C9; [4]): -; one-step metabolite detected in CYP3A5 incubation (CYP3A5; [4]): -; one-step metabolite detected in CYP3A4 incubation (CYP3A4; [4]): -; one-step metabolite detected in CYP1A2 incubation (CYP1A2; [4]): -; one-step metabolite detected in CYP2A6 incubation (CYP2A6; [4]): -; one-step metabolite detected in CYP2B6 incubation (CYP2B6; [4]): -
CC(C(=O)c1ccc(S)cc1)N1CCOCC1 (centres unmarked) [MT3.1]	-	+	-	+	+	-	+	+	+	-	+	
CSc1ccc(C(=O)C(C)[N+]2([O-])CCOCC2)cc1 (centres unmarked) [MT3.3]	-	-	+	-	-	-	-	-	-	+	-	
